Legend:
[1] = test system: SARS-CoV-2 (hCoV-19/Egypt/NRC-03/2020); conditions: SARS-CoV-2 / VERO-E6
VEGFR-2 [2] = biological target: T1, VEGFR-2 (Homo sapiens, UniProt P35968); experiment: VEGFR-2 Western blot in HCT116; type: cell-based; conditions: for VEGFR2 HCT116 % Inhibition: Western blot at MTT-IC50; for VEGFR2 HCT116 RQ (relative quantification): Western blot at MTT-IC50, control RQ 3.817
EGFR [3] = biological target: T2, EGFR (Homo sapiens, UniProt P00533); experiment: EGFR Western blot in MCF7; type: cell-based; conditions: for EGFR MCF7 % Inhibition: Western blot at MTT-IC50; for EGFR MCF7 RQ (relative quantification): Western blot at MTT-IC50, control RQ 4.226
T2 sequence (P00533 25-1210): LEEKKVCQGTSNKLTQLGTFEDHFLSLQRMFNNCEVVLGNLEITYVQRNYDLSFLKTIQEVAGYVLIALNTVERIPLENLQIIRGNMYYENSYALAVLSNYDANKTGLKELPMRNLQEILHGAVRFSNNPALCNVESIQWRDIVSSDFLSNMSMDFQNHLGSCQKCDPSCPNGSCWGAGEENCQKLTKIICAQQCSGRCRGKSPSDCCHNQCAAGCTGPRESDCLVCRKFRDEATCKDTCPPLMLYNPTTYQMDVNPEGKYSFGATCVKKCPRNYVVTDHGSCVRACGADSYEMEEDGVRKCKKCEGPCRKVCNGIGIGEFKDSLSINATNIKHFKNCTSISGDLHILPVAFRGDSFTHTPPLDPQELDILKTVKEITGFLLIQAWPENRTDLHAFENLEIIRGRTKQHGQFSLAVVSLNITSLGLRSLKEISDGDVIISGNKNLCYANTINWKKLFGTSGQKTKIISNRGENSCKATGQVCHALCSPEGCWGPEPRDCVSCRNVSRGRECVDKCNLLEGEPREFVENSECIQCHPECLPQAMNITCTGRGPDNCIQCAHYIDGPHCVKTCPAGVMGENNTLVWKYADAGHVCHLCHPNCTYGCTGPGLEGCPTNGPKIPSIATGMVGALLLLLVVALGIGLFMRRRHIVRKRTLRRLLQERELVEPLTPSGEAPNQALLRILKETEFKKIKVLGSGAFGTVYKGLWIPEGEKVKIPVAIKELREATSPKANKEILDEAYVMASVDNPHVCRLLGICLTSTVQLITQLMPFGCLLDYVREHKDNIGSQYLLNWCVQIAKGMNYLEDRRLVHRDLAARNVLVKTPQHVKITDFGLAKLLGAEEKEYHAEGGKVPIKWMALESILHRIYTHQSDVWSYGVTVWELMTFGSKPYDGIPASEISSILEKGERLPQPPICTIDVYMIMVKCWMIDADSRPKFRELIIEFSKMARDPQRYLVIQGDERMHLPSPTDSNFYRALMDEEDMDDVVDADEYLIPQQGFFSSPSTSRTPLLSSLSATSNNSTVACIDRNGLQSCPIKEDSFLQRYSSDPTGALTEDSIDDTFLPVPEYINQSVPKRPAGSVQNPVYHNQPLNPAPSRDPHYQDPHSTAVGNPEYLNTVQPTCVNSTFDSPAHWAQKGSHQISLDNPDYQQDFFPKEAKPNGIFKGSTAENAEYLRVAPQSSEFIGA

VEGFR-2 [4] = biological target: T1, VEGFR-2; experiment: VEGFR-2 Western blot in MCF7; type: cell-based; conditions: for VEGFR2 MCF7 % Inhibition: Western blot at MTT-IC50; for VEGFR2 MCF7 RQ (relative quantification): Western blot at MTT-IC50, control RQ 3.725
EGFR [5] = biological target: T2, EGFR; experiment: EGFR Western blot in HCT116; type: cell-based; conditions: for EGFR HCT116 % Inhibition: Western blot at MTT-IC50; for EGFR HCT116 RQ (relative quantification): Western blot at MTT-IC50, control RQ 4.0382
COX-2 = biological target: T3, COX-2 (Homo sapiens, UniProt P35354); experiment: COX-2 inhibitor screening kit; type: biochemical
T3 sequence (P35354 18-604): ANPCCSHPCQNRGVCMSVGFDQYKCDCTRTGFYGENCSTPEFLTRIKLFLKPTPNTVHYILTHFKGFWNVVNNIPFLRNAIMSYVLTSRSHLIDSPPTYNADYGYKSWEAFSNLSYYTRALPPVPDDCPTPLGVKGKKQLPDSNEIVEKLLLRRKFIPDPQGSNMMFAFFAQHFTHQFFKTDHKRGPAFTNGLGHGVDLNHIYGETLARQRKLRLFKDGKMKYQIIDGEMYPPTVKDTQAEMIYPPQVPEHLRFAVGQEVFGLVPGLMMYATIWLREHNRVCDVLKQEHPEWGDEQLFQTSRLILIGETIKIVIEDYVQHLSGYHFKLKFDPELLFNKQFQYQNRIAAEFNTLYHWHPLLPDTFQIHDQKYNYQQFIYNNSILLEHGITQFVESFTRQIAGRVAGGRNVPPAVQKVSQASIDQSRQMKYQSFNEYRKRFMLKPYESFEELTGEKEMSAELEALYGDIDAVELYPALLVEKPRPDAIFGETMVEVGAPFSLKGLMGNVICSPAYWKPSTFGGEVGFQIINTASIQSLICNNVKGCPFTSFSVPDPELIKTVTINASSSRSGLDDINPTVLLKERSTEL

[6] = test system: MCF7 (breast) cancer cell line; experiment: MTT antiproliferative assay, MCF7; type: cell-based; conditions: for IC50: Homo sapiens, MCF7, 72 h, read-out: IC50 ± SE, MCF7; for SI (selectivity index), MCF7: IC50 of RPE1 relative to that of MCF7
[7] = test system: HCT116 (colon) cancer cell line; experiment: MTT antiproliferative assay, HCT116; type: cell-based; conditions: for IC50: Homo sapiens, HCT-116, 72 h, read-out: IC50 ± SE, HCT116; for SI (selectivity index), HCT116: IC50 of RPE1 relative to that of HCT116
[8] = test system: RPE1 (normal human immortalized retinal pigment epithelial cell line); experiment: MTT assay against normal RPE1 cells; type: cell-based; conditions: RPE-1, read-out: IC50 ± SE, RPE1
[9] = test system: A431 (squamous skin) cancer cell line; experiment: MTT antiproliferative assay, A431; type: cell-based; conditions: for IC50: Homo sapiens, A-431, 72 h, read-out: IC50 ± SE, A431; for SI (selectivity index), A431: IC50 of RPE1 relative to that of A431
COX-1 = biological target: T4, COX-1 (Ovis aries, UniProt P05979); experiment: COX-1 inhibitor screening kit; type: biochemical
T4 sequence (P05979 25-600): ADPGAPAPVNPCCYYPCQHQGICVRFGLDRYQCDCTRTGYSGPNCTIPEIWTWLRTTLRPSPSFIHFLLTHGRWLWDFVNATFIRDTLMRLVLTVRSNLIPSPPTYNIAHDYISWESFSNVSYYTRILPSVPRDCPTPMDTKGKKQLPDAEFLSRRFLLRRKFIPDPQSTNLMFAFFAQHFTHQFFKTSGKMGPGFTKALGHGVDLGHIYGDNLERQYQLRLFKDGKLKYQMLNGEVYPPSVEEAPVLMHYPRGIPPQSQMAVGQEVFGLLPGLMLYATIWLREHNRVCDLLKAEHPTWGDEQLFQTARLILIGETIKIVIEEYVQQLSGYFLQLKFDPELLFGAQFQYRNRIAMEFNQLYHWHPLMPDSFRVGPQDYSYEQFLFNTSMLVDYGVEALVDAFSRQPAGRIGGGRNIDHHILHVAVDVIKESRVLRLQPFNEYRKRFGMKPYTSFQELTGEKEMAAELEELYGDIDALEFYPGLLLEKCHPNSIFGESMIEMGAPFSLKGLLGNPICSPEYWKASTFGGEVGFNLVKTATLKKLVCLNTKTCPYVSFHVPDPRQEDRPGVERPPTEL

T1 sequence (P35968 20-1356): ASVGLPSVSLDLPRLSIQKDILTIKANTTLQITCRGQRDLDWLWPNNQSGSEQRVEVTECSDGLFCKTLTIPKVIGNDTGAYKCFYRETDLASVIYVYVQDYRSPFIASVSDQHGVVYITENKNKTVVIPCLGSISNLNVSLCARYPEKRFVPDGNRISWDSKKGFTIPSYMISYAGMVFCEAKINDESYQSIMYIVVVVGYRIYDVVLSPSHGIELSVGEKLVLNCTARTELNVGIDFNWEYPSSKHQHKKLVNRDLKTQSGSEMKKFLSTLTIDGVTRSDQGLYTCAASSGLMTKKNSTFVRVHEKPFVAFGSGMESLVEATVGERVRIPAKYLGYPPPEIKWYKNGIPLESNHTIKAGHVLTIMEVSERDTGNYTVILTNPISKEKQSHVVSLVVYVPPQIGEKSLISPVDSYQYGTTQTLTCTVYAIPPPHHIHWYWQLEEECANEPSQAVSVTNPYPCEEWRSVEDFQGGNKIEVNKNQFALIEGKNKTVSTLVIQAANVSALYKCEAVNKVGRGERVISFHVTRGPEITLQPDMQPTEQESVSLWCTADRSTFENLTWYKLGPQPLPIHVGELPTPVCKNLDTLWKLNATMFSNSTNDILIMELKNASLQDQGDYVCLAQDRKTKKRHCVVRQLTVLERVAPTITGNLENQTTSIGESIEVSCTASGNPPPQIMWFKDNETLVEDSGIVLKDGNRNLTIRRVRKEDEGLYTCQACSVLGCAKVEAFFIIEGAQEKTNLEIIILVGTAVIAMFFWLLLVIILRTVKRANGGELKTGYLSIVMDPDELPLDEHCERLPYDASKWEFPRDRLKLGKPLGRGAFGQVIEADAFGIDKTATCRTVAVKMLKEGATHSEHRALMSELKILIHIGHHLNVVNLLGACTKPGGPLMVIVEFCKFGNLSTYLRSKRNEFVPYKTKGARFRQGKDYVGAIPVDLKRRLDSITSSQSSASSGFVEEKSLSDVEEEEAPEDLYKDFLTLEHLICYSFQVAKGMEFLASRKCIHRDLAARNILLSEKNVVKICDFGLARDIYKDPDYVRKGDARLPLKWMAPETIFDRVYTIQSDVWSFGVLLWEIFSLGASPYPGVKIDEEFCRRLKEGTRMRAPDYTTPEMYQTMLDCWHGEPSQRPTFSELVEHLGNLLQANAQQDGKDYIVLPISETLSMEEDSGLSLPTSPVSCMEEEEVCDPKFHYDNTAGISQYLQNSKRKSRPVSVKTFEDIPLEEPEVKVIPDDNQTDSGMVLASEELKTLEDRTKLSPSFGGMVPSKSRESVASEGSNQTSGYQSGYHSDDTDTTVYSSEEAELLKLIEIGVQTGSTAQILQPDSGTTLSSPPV

| Structure (SMILES) | SI = CC50/IC50 [1] | VEGFR2 HCT116 % Inhibition (VEGFR-2 [2]) | EGFR MCF7 % Inhibition (EGFR [3]) | VEGFR2 MCF7 % Inhibition (VEGFR-2 [4]) | EGFR HCT116 % Inhibition (EGFR [5]) | IC50 (COX-2) | SI = IC50(COX-1)/IC50(COX-2) (COX-2) | VEGFR2 HCT116 RQ (relative quantification) (VEGFR-2 [2]) | IC50 [6] | SI (selectivity index), MCF7 [6] | EGFR MCF7 RQ (relative quantification) (EGFR [3]) | IC50 [7] | SI (selectivity index), HCT116 [7] | IC50 [8] | IC50 [9] | SI (selectivity index), A431 [9] | VEGFR2 MCF7 RQ (relative quantification) (VEGFR-2 [4]) | IC50 (COX-1) | EGFR HCT116 RQ (relative quantification) (EGFR [5]) |
| --- | --- | --- | --- | --- | --- | --- | --- | --- | --- | --- | --- | --- | --- | --- | --- | --- | --- | --- | --- |
| CCN(CC)CCCC(C)Nc1ccnc2cc(Cl)ccc12 (stereo not shown) [Chloroquine, reference compound] | 15.1 | – | – | – | – | – | – | – | – | – | – | – | – | – | – | – | – | – | – |
| O=c1[nH]cc(F)c(=O)[nH]1 [Compound 5-FU, 5-fluorouracil, reference compound] | – | 75.4% | 85.8% | 67.2% | 81.2% | – | – | – | – | – | – | – | – | – | – | – | – | – | – |
| CC(=O)Oc1ccccc1C(=O)N1C/C(=C\c2ccccc2)C(=O)/C(=C/c2ccccc2)C1 [Compound 5a, 2-[3,5-Di((E)-benzylidene)-4-oxopiperidine-1-carbonyl]phenyl acetate] | 18.5 | 67.5% | 90.3% | 64.6% | 69.3% | 1.55 µM | 0.161 | 1.24 | 4.74 ± 0.38 µM | 2.25 | 0.41 | 4.72 ± 0.42 µM | 2.25 | 10.6 ± 1.04 µM | 4.49 ± 0.41 µM | 2.4 | 1.32 | 0.249 µM | 1.24 |
| CC(=O)Oc1ccccc1C(=O)N1C/C(=C\c2ccc(F)cc2)C(=O)/C(=C/c2ccc(F)cc2)C1 [Compound 5b, 2-[3,5-Bis((E)-4-fluorobenzylidene)-4-oxopiperidine-1-carbonyl]phenyl acetate] | 22.7 | 70.9% | 83.7% | 57.0% | 72.8% | 0.442 µM | 0.330 | 1.11 | 5.76 ± 0.47 µM | 1.44 | 0.69 | 5.1 ± 0.51 µM | 1.63 | 8.3 ± 0.71 µM | 2.12 ± 0.19 µM | 3.9 | 1.6 | 0.146 µM | 1.1 |
| CC(=O)Oc1ccccc1C(=O)N1C/C(=C\c2ccc(Br)cc2)C(=O)/C(=C/c2ccc(Br)cc2)C1 [Compound 5d, 2-[3,5-Bis((E)-4-bromobenzylidene)-4-oxopiperidine-1-carbonyl]phenyl acetate] | 54.7 | 60.7% | 64.0% | 48.7% | 65.9% | 1.11 µM | 0.121 | 1.5 | 4.58 ± 0.39 µM | 2.11 | 1.52 | 3.6 ± 0.29 µM | 2.69 | 9.68 ± 0.57 µM | 0.986 ± 0.08 µM | 9.8 | 1.91 | 0.134 µM | 1.377 |
| CC(=O)Oc1ccccc1C(=O)N1C/C(=C\c2ccc(C)cc2)C(=O)/C(=C/c2ccc(C)cc2)C1 [Compound 5e, 2-[3,5-Bis((E)-4-methylbenzylidene)-4-oxopiperidine-1-carbonyl]phenyl acetate] | 37.4 | 42.1% | 59.6% | 40.9% | 58.8% | 1.56 µM | 0.160 | 2.209 | 6 ± 0.5 µM | 1.65 | 1.707 | 2.56 ± 0.18 µM | 3.87 | 9.89 ± 0.75 µM | 0.639 ± 0.07 µM | 15.5 | 2.202 | 0.249 µM | 1.664 |
| COc1ccc(/C=C2\CN(C(=O)c3ccccc3OC(C)=O)C/C(=C\c3ccc(OC)cc3)C2=O)cc1 [Compound 5f, 2-[3,5-Bis((E)-4-methoxybenzylidene)-4-oxopiperidine-1-carbonyl]phenyl acetate] | 1.2 | 64.1% | 76.3% | 58.1% | 62.5% | 0.315 µM | 0.467 | 1.37 | 5.38 ± 0.51 µM | 1.84 | 1 | 6.08 ± 0.49 µM | 1.63 | 9.89 ± 0.66 µM | 6.04 ± 0.62 µM | 1.6 | 1.56 | 0.147 µM | 1.516 |
| COc1ccc(/C=C2\CN(C(=O)c3ccccc3OC(C)=O)C/C(=C\c3ccc(OC)c(OC)c3)C2=O)cc1OC [Compound 5g, 2-[3,5-Bis((E)-3,4-dimethoxybenzylidene)-4-oxopiperidine-1-carbonyl]phenyl acetate] | 57.5 | 37.3% | 61.2% | 37.6% | 61.5% | 2.18 µM | 0.120 | 2.393 | 4.97 ± 0.42 µM | 2.08 | 1.638 | 2.39 ± 0.21 µM | 4.32 | 10.3 ± 1.1 µM | 0.973 ± 0.07 µM | 10.6 | 2.324 | 0.262 µM | 1.554 |
| COc1cc(/C=C2\CN(C(=O)c3ccccc3OC(C)=O)C/C(=C\c3cc(OC)c(OC)c(OC)c3)C2=O)cc(OC)c1OC [Compound 5h, 2-[4-Oxo-3,5-bis((E)-3,4,5-trimethoxybenzylidene)piperidine-1-carbonyl]phenyl acetate] | 35.0 | 37.2% | 58.9% | 45.4% | 57.9% | 0.438 µM | 0.336 | 2.398 | 3.99 ± 0.36 µM | 2.16 | 1.737 | 1.33 ± 0.09 µM | 6.47 | 8.62 ± 0.72 µM | 0.472 ± 0.02 µM | 18.3 | 2.032 | 0.147 µM | 1.698 |
| CCN(CCO)CCCC(C)Nc1ccnc2cc(Cl)ccc12 (stereo not shown) [Hydroxychloroquine, reference compound] | 9.7 | – | – | – | – | – | – | – | – | – | – | – | – | – | – | – | – | – | – |

From article PMC8566089 (Bioorganic Chemistry, 2021)
